Three compounds from US20070173499A1 (priority 2004, published 2007) can be followed below.

Where two headings read alike, the source gives them in different places.

One test has as its target T1, 5-HT2A receptor (Homo sapiens, UniProt P28223).
T1 construct: expressed in transfected cells; host or cells: CHO-K1 (or COS-7); alternatively human cortex tissue
The test is described as follows: radioligand binding assay for 5-HT2A receptor ([3H]-ketanserin). The protocol: (§1) The effect of the compounds of the present invention on the neurochemical steady state was determined by in vitro investigations such as a radionuclide-marked radioligand binding assay for 5-HT2A (Bonhaus D. W. Br. J. Pharmacol. 1995, 115:622; Saucier C. J. Neurochem. 1997, 68:1998) and 5-HT2C receptors (Wolf W. A. J. Neurochem. 1997, 69:1449), in vitro binding assay for σ1 receptor (Thomson W. and Donn R. Arthritis Res. 2002, 4: 302-306) and by in vivo investigations in a tail suspension test (Vogel H. G. and Vogel W. H. Drug Discovery and Evaluation Pharmacological Assays, Springer 1997, 304), in amphethamine-induced hyperlocomotion in mice (Millan M. J. et al, 1998 J Pharmacol. Exp. Ther. 287: 167-186), in a forced swim test in mice (Porsolt R. D. et al. Arch. Int. Pharmacodyn. 1977, 229:327-336), in meta-chlorophenyl piperazine (m-CPP) test on rats (Drug Dev. Res. 1989, 18:119-144), and in apomorphine, tryptamine and norepinephrine (ATN) test in rats (Arch. Int. Pharmacodyn. 1977, 227:238-253).
(§2) A small concentration of a radioligand having a great affinity for binding to a receptor was incubated with a tissue sample enriched with a certain receptor (1-5 mg of tissue) in a buffered medium (0.2-5 mL). Recombinant human HT2A and HT2C receptors were expressed in CHO-K1 or COS-7 cells and were also used for competitive binding. During incubation the radioligand bound to the receptor. When a binding balance was achieved, the receptors to which the radioligand was bound were separated from those to which said ligand was not bound, and the radioactivity of the receptor/radioligand complex was measured. The interaction of the tested compounds with receptors was tested in competitive binding experiments. Various concentrations of tested compounds were added to the incubation mixture containing a prepared tissue enriched with corresponding receptors and the radioligand. The radioligand binding was inhibited by the test compounds proportionally to the affinity of a certain compound for the receptor and to the concentration of the compound.
(§3) The radioligand used for the determination of binding to 5-HT2A receptor was [^3H]-ketanserin and the tissue used was human cortex or recombinant 5-HT2A receptor expressed in CHO-K1 cells. The radioligand used for the determination of binding to 5-HT2C receptor was [^3H]-mesulergine and the tissue used was choroid plexus or recombinant 5-HT2C receptor expressed in CHO-K1 cells.

The target in the next test is T2, 5-HT2C receptor (Homo sapiens, UniProt P28335).
T2 construct: expressed in transfected cells; host or cells: CHO-K1 (or COS-7); alternatively choroid plexus tissue
T2 sequence (P28335 33-458): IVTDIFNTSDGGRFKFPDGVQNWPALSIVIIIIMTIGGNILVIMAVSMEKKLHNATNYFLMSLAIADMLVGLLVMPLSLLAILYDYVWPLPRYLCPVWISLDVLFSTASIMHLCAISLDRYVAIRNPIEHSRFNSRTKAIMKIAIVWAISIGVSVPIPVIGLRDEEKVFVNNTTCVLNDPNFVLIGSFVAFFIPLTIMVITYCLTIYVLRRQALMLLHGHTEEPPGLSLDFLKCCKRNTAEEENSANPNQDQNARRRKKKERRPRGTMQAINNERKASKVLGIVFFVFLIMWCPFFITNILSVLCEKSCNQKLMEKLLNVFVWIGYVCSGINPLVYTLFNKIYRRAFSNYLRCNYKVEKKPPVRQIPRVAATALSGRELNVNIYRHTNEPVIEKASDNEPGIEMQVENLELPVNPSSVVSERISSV
The test is described as follows: radioligand binding assay for 5-HT2C receptor ([3H]-mesulergine). On the procedure:
as §1, §2, §3

A further test addresses T3, σ1 receptor (Homo sapiens, UniProt Q99720).
T3 construct: endogenous in cells; host or cells: Jurkat cells (membrane fraction)
The test is described as follows: in vitro binding assay for σ1 receptor, Jurkat cell membranes, [3H]haloperidol. Conditions: [3H]haloperidol 10 nM. On the procedure:
as §1, with “227:238-253). […]” for “227:238-253).”
Binding of different radiolabeled ligans to Jurkat cell membranes was measured as described previously (Ramamoorthy et al., 1995). […]
Membranes were incubated with ligands in phosphate buffer for 3 hours at room temperature. After filter had been washed, radioactivity associated with the filter was determined by liquid scintillation spectrometry.

T1 sequence (P28223 whole entry): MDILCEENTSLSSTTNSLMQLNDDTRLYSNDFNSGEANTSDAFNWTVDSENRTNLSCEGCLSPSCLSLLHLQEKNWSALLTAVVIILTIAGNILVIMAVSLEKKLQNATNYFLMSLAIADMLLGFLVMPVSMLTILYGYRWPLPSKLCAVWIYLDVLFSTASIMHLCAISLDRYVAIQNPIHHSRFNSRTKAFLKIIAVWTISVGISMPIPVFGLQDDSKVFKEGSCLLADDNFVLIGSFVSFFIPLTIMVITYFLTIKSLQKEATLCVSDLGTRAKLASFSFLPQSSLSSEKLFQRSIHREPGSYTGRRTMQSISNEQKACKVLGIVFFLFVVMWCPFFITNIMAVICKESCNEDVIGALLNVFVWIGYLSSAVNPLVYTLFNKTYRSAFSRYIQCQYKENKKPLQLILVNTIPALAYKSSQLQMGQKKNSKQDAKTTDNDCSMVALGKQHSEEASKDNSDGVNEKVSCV
T3 sequence (Q99720 whole entry): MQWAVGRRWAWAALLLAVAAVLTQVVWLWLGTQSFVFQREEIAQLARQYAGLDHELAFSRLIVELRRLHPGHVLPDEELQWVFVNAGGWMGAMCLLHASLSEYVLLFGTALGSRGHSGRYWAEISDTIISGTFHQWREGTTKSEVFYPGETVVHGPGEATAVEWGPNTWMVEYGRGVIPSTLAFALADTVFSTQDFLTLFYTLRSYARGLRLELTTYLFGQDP

As usually defined, the IC50 is the concentration needed to halve the response being measured. For orientation: Ki means a measure of affinity in units of concentration, obtained from inhibition or displacement. On to `CN(C)CCCOCc1cc2c(s1)-c1ccc3ccccc3c1Sc1ccccc1-2` [dimethyl-[3-(3,10-dithia-benzo[e]naphtho[1,2-h]azulen-2-ylmethoxy)-propyl]-amine], for which the IC50 at 5-HT2A receptor ([3H]-ketanserin, human cortex or recombinant 5-HT2A receptor in CHO-K1 cells, read-out: binding affinity to 5-HT2A serotonin receptor expressed as IC50) is below 200 nM; at 5-HT2C receptor ([3H]-mesulergine, choroid plexus or recombinant 5-HT2C receptor in CHO-K1 cells, read-out: binding affinity to 5-HT2C serotonin receptor expressed as IC50) it was below 200 nM. The inhibition constant (Ki) on 5-HT2A receptor ([3H]-ketanserin, human cortex or recombinant 5-HT2A receptor in CHO-K1 cells, read-out: binding affinity to 5-HT2A serotonin receptor, Ki) was below 100 nM; at 5-HT2C receptor ([3H]-mesulergine, choroid plexus or recombinant 5-HT2C receptor in CHO-K1 cells, read-out: binding affinity to 5-HT2C serotonin receptor, Ki), below 100 nM.

As for `CC(CN(C)C)OCc1cc2c(s1)-c1cc3c(cc1Oc1ccccc1-2)CCCC3` (stereo not shown) [dimethyl-[2-(10,11,12,13-tetrahydro-8-oxa-1-thia-benzo[e]naphtho[3,2-h]azulen-2-ylmethoxy)-propyl]-amine], at σ1 receptor (read-out: binding affinity to σ1 receptor expressed as IC50), the IC50 was below 200 nM. The inhibitory constant (Ki) on σ1 receptor (read-out: binding affinity to σ1 receptor, Ki) is below 100 nM.

Turning to `CN(C)CCCOCc1cc2c(s1)-c1cc3ccccc3cc1Sc1ccccc1-2`, at 5-HT2A receptor, the concentration for half-maximal inhibition (IC50) was below 200 nM and the inhibitory constant (Ki) is below 100 nM. At 5-HT2C receptor, this compound showed an IC50 below 200 nM and an inhibition constant Ki below 100 nM.
